Source: patent US20050186172A1, “Cosmetic composition capable of fighting against skin aging” (Laboratoires Clarins, a corporation of France, priority 2002, published 2005)

Test system: glycation cross-linking between bovine albumin and glucose
Assay: Anti-glycation activity: fluorescence of bovine albumin-glucose adduct (AGE) after incubation
Type: biochemical
Conditions: 10 mM, 8 days 37° C.
Description: The effect of the extract of Diospyros kaki was studied in vitro on a model based on the measurement of the formation of the derivatives of the glycation reaction between lysine and glucose 6-phosphate. Certain of these derivatives (AGE) are fluorescent. The reaction was measured after […] of incubation.
A reference molecule was tested in parallel: aminoguanidine.
The test system is the reaction mixture containing bovine albumin ([…]) and glucose (500 mM) in a phosphate buffer (0.2 M, pH=7.4.).
The products were mixed with the test system in sterile tubes; the tubes were covered with aluminum foil (the reaction must take place shielded from light).
For the experimental conditions in which certain reagents or products are not present, the volume of the QSP tube should be completed with MilliQ water.
After having sealed the openings of the tubes with parafilm (the reaction must take place without oxygen), the different reaction media were placed in a dry oven at 37° C. for 8 days.
After 8 days of incubation, 100 μl was collected from each tube and transferred to a 96-well black plate.
The fluorescence was then read using FLUOstar (BMG) (excitation at 355 nm, emission at 460 nm). The results are expressed in arbitrary fluorescence units.
The relative fluorescence for the “product+bovine albumin” (=interference) is to be subtracted from the “product+bovine albumin+glucose” data.
After 8 days of incubation of bovine albumin with an overcharge of glucose, the formation of glycation cross-linking was seen. It was evaluated by taking advantage of the fluorescence properties of the bovine albumin-glucose adduct.

## N=C(N)NN [Aminoguanidine, aminoguanidine]
BSA + glucose
  % inhibition of the glycation: 100%
BSA + glucose, ex 355 nm / em 460 nm
  Intensity of fluorescence: 13,011.5 arbitrary units
Interference subtracted
  Intensity of real fluorescence: 0 arbitrary units
